A short description of the first test: Capability to inhibit the binding of [3H]LTB4 to guinea pig spleen Leukotriene B4 receptor at the concentration of 10e-5 M.
Turning to `O=C(O)CCCCc1sccc1CCCc1ccccc1`, the 50% inhibitory concentration (IC50) amounted to 3500 nM.
The compound `O=C(O)CCCCCCc1ccsc1CCCc1ccc(Cl)cc1` gave an IC50 of 1000 nM.
`O=C(O)CCCCCCc1sc(-c2ccccc2)cc1CCCc1ccccc1` registered an IC50 of 1000 nM.
Same read-out and setting: then `O=C(O)CCCCCCc1csc(CCc2ccccc2)c1`, with 10000 nM; and `O=C(O)CCCCCCc1csc(Cc2ccccc2)c1`, with 10000 nM.
`O=C(O)CCCCCC(O)c1sccc1CCCc1ccccc1` (stereo not drawn) came in with an IC50 of 6000 nM.
On the same count and under the same terms, under `CC(CCCCCc1sccc1CCCc1ccccc1)C(=O)O` (stereo not drawn) stands 110 nM; under `Cc1cc(CCCCCC(C)C(=O)O)c(CCCc2ccccc2)s1` (stereo not drawn), 300 nM.
In turn, `O=C(O)CCCCCCc1sccc1CCCc1ccccc1` came in with an IC50 of 1000 nM.
Take `Cc1cc(CCCc2ccccc2)c(SCCCCCC(=O)O)s1`: the IC50 was found to be 3000 nM.
The compound `O=C(O)CCCCCCc1csc(CCCc2ccc(Cl)cc2)c1` gave an IC50 of 1000 nM.
As to `Cc1cc(CCCc2ccccc2)c(CCCCCC(C)C(=O)O)s1` (stereo not drawn), the IC50 worked out at 300 nM.
Compound `CC(C)(CCCCCc1cc(-c2ccccc2)sc1CCCc1ccccc1)C(=O)O` returned an IC50 of 1200 nM.
Same read-out and setting: then `CC(C)(CCCCCc1sc(-c2ccccc2)cc1CCCc1ccccc1)C(=O)O`, with 800 nM; and `Cc1cc(CCCCCCC(=O)O)c(CCCc2ccccc2)s1`, with 700 nM; and `O=C(O)CCCCCCc1csc(CCCc2ccc(O)cc2)c1`, with 5000 nM.

The nature of another test: Capability of compound to inhibit the binding of [3H]LTB4 to guinea pig spleen Leukotriene B4 receptor at the concentration of 10e-5 M.
As to `Cc1cc(CCCc2ccccc2)c(CCCCCC(C)(C)C(=O)O)s1`, the IC50 turned out to be 200 nM.

A short description of a further test: Capability of compound to inhibit the binding of [3H]LTB4 to guinea pig spleen Leukotriene B4 receptors at the concentration of 10e-5 M.
`O=C(O)CCCCCCc1ccsc1CCCc1ccccc1` came in with an IC50 of 1000 nM.
